Source: the supplement of paper PMC10307832

Columns and labels:
Experiment in all cases: relative viability (nuclei count vs DMSO), 5 days (fraction); higher = more cells survive
[1] = compound: CN1C=C(C2=CC=CC=C21)/C=C\3/C4=C(C=CC=N4)NC3=O + COc1cccc2cc(-c3nc([C@H]4CC[C@H](C(=O)O)CC4)n4ncnc(N)c34)[nH]c12 [OSI-027] (partner 0.5 µM)
Summary of the method: (§1)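 Five library-drug doses in √10 steps were combined with a fixed anchor-drug dose, or a single drug was given alone, by pin tool to lung cancer cell lines in 1536-well plates the day after seeding. Nuclei were stained and counted after 5 days. Relative viability is the nuclei count in treated wells over that in vehicle wells, taken as the median of duplicate plates.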

Trametinib + Pemetrexed = compound: CC(=O)Nc1cccc(-n2c(=O)n(C3CC3)c(=O)c3c(Nc4ccc(I)cc4F)n(C)c(=O)c(C)c32)c1 [Trametinib] + Nc1nc2[nH]cc(CCc3ccc(C(=O)N[C@@H](CCC(=O)O)C(=O)O)cc3)c2c(=O)[nH]1 [Pemetrexed] (partner 0.2 µM)
Summary of the method: as §1

Trametinib + Pictilisib = compound: CC(=O)Nc1cccc(-n2c(=O)n(C3CC3)c(=O)c3c(Nc4ccc(I)cc4F)n(C)c(=O)c(C)c32)c1 [Trametinib] + CS(=O)(=O)N1CCN(Cc2cc3nc(-c4cccc5[nH]ncc45)nc(N4CCOCC4)c3s2)CC1 [Pictilisib] (partner 1 µM)
Summary of the method: as §1

[2] = compound: CN1C=C(C2=CC=CC=C21)/C=C\3/C4=C(C=CC=N4)NC3=O + N=C(N)NC(=N)NCCc1ccccc1 [Phenformin] (partner 250 µM)
Summary of the method: as §1

| Cell Line | relative viability ([1]; first compound 0.02 µM) | relative viability ([1]; first compound 0.06325 µM) | relative viability ([1]; first compound 0.2 µM) | relative viability ([1]; first compound 0.6325 µM) | relative viability ([1]; first compound 2 µM) | relative viability (Trametinib + Pemetrexed; first compound 0.0025 µM) | relative viability (Trametinib + Pemetrexed; first compound 0.007906 µM) | relative viability (Trametinib + Pemetrexed; first compound 0.025 µM) | relative viability (Trametinib + Pemetrexed; first compound 0.07906 µM) | relative viability (Trametinib + Pemetrexed; first compound 0.25 µM) | relative viability (Trametinib + Pictilisib; first compound 0.0025 µM) | relative viability (Trametinib + Pictilisib; first compound 0.007906 µM) | relative viability (Trametinib + Pictilisib; first compound 0.025 µM) | relative viability (Trametinib + Pictilisib; first compound 0.07906 µM) | relative viability (Trametinib + Pictilisib; first compound 0.25 µM) | relative viability ([2]; first compound 0.02 µM) | relative viability ([2]; first compound 0.06325 µM) | relative viability ([2]; first compound 0.2 µM) | relative viability ([2]; first compound 0.6325 µM) | relative viability ([2]; first compound 2 µM) |
| --- | --- | --- | --- | --- | --- | --- | --- | --- | --- | --- | --- | --- | --- | --- | --- | --- | --- | --- | --- | --- |
| NCI-H647 | 0.719 | 0.616 | 0.478 | 0.655 | 0.557 | 0.188 | 0.183 | 0.152 | 0.155 | 0.141 | 0.348 | 0.301 | 0.235 | 0.206 | 0.127 | 0.387 | 0.387 | 0.343 | 0.479 | 0.528 |
| NCI-H838 | 0.335 | 0.326 | 0.354 | 0.366 | 0.319 | 0.245 | 0.212 | 0.229 | 0.217 | 0.213 | 0.351 | 0.415 |  | 0.319 | 0.281 | 0.5 | 0.533 | 0.519 | 0.569 | 0.535 |
| PC-14 | 0.95 | 0.819 | 0.751 | 0.84 | 0.785 | 0.131 | 0.113 | 0.153 | 0.132 | 0.141 | 0.667 | 0.546 | 0.24 | 0.141 | 0.107 | 0.54 | 0.482 |  | 0.575 | 0.447 |
| NCI-H358 | 0.756 | 0.67 | 0.768 | 0.851 | 0.689 | 0.156 | 0.143 | 0.164 | 0.16 | 0.152 | 0.311 | 0.328 | 0.233 | 0.22 | 0.363 | 0.301 | 0.316 | 0.311 | 0.4 | 0.4 |
